Measurements reported in ChEMBL document CHEMBL1129005 (Bioorg Med Chem Lett, 1996).

Legend:
[1] = biological target: T1, Muscarinic acetylcholine receptor M2 (Homo sapiens, UniProt P08172); assay: Compound was evaluated for displacement of [3H]-QNB from human Muscarinic m2 receptor in CHO cells.; type: cell-based
T1 sequence (P08172 whole entry): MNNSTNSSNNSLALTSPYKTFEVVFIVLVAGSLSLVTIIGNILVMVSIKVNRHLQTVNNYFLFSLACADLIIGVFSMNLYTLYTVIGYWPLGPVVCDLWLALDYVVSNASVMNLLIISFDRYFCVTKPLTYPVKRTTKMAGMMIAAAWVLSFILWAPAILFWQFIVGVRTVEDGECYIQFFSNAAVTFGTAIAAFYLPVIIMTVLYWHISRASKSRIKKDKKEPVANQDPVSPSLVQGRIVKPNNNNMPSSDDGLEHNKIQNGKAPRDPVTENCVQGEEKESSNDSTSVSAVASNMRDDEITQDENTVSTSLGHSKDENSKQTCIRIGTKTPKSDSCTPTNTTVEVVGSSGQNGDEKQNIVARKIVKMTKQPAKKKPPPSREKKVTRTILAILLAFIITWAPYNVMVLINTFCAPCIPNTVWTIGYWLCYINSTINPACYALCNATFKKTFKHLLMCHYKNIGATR

[2] = biological target: T2, Muscarinic acetylcholine receptor M1 (Homo sapiens, UniProt P11229); assay: Compound was evaluated for displacement of [3H]QNB from human Muscarinic m1 receptor in CHO cells.; type: cell-based
T2 sequence (P11229 whole entry): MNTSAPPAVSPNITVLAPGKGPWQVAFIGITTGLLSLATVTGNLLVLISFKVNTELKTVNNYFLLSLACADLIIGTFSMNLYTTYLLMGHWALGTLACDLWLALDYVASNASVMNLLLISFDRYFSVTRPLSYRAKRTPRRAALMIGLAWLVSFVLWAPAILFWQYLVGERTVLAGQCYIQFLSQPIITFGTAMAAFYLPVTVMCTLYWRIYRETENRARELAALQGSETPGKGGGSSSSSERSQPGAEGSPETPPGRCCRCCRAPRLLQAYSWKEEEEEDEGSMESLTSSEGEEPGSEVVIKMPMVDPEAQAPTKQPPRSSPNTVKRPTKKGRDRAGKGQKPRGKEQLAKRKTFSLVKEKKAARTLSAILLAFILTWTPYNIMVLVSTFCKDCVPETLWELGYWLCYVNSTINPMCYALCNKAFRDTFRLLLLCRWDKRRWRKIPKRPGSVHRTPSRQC

Ki [1] [nM]	Ki [2] [nM]	SMILES
52	179	CCN(CC)CC1CCCCN1CC(=O)N1c2ccccc2C(=O)Nc2cccnc21 (stereo unspecified) [OTENZEPAD]
71.2	82.4	CC1CCN(CC(=O)N2c3ccccc3C(=O)Nc3cccnc32)CC1
5.28	12.4	CCCN(CCC)CC1CCCCN1CCNC(=O)N1c2ccccc2C(=O)Nc2cccnc21 (stereo unspecified)
